Where only a bound is given, the exact number is not on record here.

This note sets out measurements from patent publication US20240294499A1, “TARGETED PROTEIN DEGRADATION USING BIFUNCTIONAL COMPOUNDS THAT BIND UBIQUITIN LIGASE AND TARGET MCL-1 PROTEIN” (Captor Therapeutics S.A., priority 2021, published 2024).

Assay [1] addresses [MCL-1]-[compound of formula (I)]-[CRBN/DDB1] complex (Homo sapiens, UniProt Q07820+Q96SW2). The assay is described as follows: AlphaLISA dose response ternary complex formation assay. It counts as binding. Particulars: read-out: AlphaLISA dose response Average pEC50 by molecule (converted). In outline: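 EC50 comes from dose–response of AlphaLISA luminescence (excitation 680, emission 615 nm), normalised between DMSO background and an internal positive control, with concentrations past the hook point dropped. Ternary complex formed by mixing bead-bound biotin-hMCL-1 and His-CRBN/DDB1 (protein solutions 40 and 200 nM) with compound in 2% DMSO, 30 min, 25 °C.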

The subject of the next assay is MV-4-11 cells. The assay is described as follows: Cell viability assay (CellTiter-Glo), MV-4-11. The format is cell-based. Particulars: Homo sapiens, MV4-11, 24 hours incubation, 1% FBS, read-out: Average pIC50 by molecule MV-4-11 (converted). The essentials:
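Luminescent ATP readout (CellTiter-Glo) at 24 hours measured viability, expressed relative to DMSO-treated wells. Compound was added directly to the medium as a 9–12-point threefold series starting at 30 uM, at 0.5% final DMSO. The medium contained FBS reduced to 1%.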

A further assay has as its system ARH-77 cells. The assay is described as follows: Cell viability assay (CellTiter-Glo), ARH-77. Particulars: Homo sapiens, ARH-77, 24 hours incubation, 1% FBS, read-out: Average pIC50 by molecule ARH-77 (converted). It counts as cell-based. The text has this: The effect of various compounds of the invention on the viability of OPM-2, MV-4-11 and ARH-77 cell lines was investigated, using the CTG protocol described below.
OPM-2 and MV-4-11 cell lines are derived from multiple myeloma and acute myeloid leukaemia, respectively. Both cell lines are described in the literature as MCL-1 dependent lines, as opposed to lymphoblast-like ARH-77 cell line, which is described as independent of MCL-1 (Tron A E et al. Nat Commun. 2018; 9: 5341; Caenepeel S et al. Cancer Discov. 2018 December; 8(12):1582-1597).
Cells (OPM-2, MV-4-11 or ARH-77) were seeded on […] in a growth medium with FBS reduced to 1%. Next, compound stocks were pre-diluted in DMSO and added directly to the cells growth medium (final DMSO concentration: 0.5%). Compound concentrations used in this assay: 1/3 dilutions starting at 30 uM (9 to 12 points).
After 24 hours of incubation, cell viability was evaluated using CellTiter-Glo Luminescent Cell Viability Assay (Promega, cat #G7572). Luminescence signal was measured using a CLARIOstar Plus Multi-Mode Microplate Reader (574-590 nm).
Results were normalized to DMSO control.
For orientation: In ATP-based viability assays light output follows the ATP content of the culture.

Sequence of [MCL-1]-[compound of formula (I)]-[CRBN/DDB1] complex (Q07820 whole entry): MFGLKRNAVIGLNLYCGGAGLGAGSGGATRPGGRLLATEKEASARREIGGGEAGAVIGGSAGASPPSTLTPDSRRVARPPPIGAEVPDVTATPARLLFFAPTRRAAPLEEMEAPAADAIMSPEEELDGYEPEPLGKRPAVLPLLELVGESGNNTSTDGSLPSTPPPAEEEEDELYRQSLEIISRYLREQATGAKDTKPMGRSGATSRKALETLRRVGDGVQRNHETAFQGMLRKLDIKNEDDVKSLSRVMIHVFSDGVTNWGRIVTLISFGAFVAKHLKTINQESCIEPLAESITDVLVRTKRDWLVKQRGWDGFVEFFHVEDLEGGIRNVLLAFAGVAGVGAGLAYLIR
Sequence of [MCL-1]-[compound of formula (I)]-[CRBN/DDB1] complex (Q96SW2 whole entry): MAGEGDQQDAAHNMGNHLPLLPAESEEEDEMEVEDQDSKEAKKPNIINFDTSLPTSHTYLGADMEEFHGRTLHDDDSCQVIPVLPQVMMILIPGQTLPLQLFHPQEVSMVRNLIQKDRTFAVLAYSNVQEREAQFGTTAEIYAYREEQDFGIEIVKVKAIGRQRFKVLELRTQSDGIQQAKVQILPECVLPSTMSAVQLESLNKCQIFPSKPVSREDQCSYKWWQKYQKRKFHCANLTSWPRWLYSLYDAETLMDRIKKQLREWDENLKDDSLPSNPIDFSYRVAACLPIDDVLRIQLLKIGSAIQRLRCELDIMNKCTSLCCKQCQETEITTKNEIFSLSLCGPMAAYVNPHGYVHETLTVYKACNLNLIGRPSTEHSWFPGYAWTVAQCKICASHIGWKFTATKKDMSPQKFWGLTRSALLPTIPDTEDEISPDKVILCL
Sequence of [MCL-1]-[compound of formula (I)]-[CRBN/DDB1] complex (Q16531 whole entry partner): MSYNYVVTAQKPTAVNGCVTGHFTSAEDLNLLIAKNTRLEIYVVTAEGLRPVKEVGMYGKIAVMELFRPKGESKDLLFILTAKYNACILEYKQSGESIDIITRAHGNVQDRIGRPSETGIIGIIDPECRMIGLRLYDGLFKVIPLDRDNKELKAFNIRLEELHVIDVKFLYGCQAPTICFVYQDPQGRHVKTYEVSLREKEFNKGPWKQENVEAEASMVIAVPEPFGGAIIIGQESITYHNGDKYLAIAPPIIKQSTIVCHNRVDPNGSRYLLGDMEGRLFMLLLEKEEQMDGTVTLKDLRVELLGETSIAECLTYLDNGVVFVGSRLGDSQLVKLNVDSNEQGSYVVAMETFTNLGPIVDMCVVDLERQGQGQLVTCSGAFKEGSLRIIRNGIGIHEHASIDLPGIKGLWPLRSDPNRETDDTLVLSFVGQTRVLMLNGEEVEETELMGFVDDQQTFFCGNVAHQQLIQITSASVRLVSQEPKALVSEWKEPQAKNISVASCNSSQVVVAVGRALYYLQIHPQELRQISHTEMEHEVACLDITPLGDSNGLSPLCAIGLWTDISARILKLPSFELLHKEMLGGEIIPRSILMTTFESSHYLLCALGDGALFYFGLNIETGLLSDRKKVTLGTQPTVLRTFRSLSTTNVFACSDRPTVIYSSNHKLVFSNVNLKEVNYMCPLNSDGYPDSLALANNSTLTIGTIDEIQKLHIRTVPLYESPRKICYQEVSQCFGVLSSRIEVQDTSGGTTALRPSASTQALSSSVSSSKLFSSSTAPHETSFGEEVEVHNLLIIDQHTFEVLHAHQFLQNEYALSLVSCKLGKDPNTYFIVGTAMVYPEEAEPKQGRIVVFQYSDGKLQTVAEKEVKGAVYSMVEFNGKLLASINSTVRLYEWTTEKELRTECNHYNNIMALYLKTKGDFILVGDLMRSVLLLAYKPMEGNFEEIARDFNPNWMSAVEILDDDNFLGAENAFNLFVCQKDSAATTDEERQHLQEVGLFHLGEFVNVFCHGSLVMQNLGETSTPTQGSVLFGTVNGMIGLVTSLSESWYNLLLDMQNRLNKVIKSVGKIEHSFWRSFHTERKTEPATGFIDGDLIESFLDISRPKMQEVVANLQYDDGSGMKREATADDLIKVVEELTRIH

With `Cc1cc(C(=O)NC2CCC(=O)NC2=O)c2nc(C)n(CC(=O)N3CCN(CCn4c(C(=O)O)c(CCCOc5cccc6cc(F)ccc56)c5ccc(Cl)c(-c6c(C)nn(C)c6C)c54)CC3)c2c1` (stereo not drawn) [Compound 274, 6-Chloro-1-(2-(4-(2-(4-((2,6-dioxopiperidin-3-yl)carbamoyl)-2,6-dimethyl-1H-benzo[d]imidazol-1-yl)acetyl)piperazin-1-yl)ethyl)-3-(3-((6-fluoronaphthalen-1-yl)oxy)propyl)-7-(1,3,5-trimethyl-1H-pyrazol-4-yl)-1H-indole-2-carboxylic acid], the EC50 in assay [1] was < 0.01 µM. Moreover, the results for the IC50 with MV-4-11 cells and with ARH-77 cells were ≤ 0.1 µM and > 10 µM, respectively.
For the compound `Cc1nn(C)c(C)c1-c1c(Cl)ccc2c(CCCOc3cccc4ccccc34)c(C(=O)O)n(CC[N+]3([O-])CCN(C(=O)COc4cccc5c4CN(C4CCC(=O)NC4=O)C5=O)CC3)c12` (stereo not drawn) [Compound 224, 1-(2-(2-carboxy-6-chloro-3-(3-(naphthalen-1-yloxy)propyl)-7-(1,3,5-trimethyl-1H-pyrazol-4-yl)-1H-indol-1-yl)ethyl)-4-(2-((2-(2,6-dioxopiperidin-3-yl)-1-oxoisoindolin-4-yl)oxy)acetyl)piperazine 1-oxide], in assay [1], the EC50 is < 0.1 µM. The IC50 with MV-4-11 cells is ≤ 0.316 µM; in the assay with ARH-77 cells, > 10 µM.
The corresponding values for `Cc1nn(C)c(C)c1-c1c(Cl)ccc2c(CCCOc3cccc4cc(F)ccc34)c(C(=O)O)n(CCN3CCN(C(=O)Cn4c(C)nc5c(C(=O)NC6CCC(=O)NC6=O)cc(Cl)cc54)CC3)c12` (stereo not drawn) [Compound 276, 6-Chloro-1-(2-(4-(2-(6-chloro-4-((2,6-dioxopiperidin-3-yl)carbamoyl)-2-methyl-1H-benzo[d]imidazol-1-yl)acetyl)piperazin-1-yl)ethyl)-3-(3-((6-fluoronaphthalen-1-yl)oxy)propyl)-7-(1,3,5-trimethyl-1H-pyrazol-4-yl)-1H-indole-2-carboxylic acid] are < 0.1 µM, ≤ 0.1 µM and > 10 µM.
The corresponding values for `COc1cc(OCCCc2c(C(=O)O)n(CCN3CCN(C(=O)COc4cccc5c4C(=O)N(C4CCC(=O)NC4=O)C5=O)CC3)c3c(-c4c(C)nn(C)c4C)c(Cl)ccc23)c2ccccc2c1` (stereo not drawn) [Compound 218, 6-chloro-1-(2-(4-(2-((2-(2,6-dioxopiperidin-3-yl)-1,3-dioxoisoindolin-4-yl)oxy)acetyl)piperazin-1-yl)ethyl)-3-(3-((3-methoxynaphthalen-1-yl)oxy)propyl)-7-(1,3,5-trimethyl-1H-pyrazol-4-yl)-1H-indole-2-carboxylic acid] are < 0.1 µM, ≤ 1 µM and > 10 µM.
The corresponding values for `Cc1nn(C)c(C)c1-c1c(Cl)ccc2c(CCCOc3cccc4cc(F)ccc34)c(C(=O)O)n(CCN3CCN(C(=O)COc4c(Cl)ccc5c4CN(C4CCC(=O)NC4=O)C5=O)CC3)c12` (stereo not drawn) [Compound 345, 6-Chloro-1-{2-[4-(2-{[5-chloro-2-(2,6-dioxopiperidin-3-yl)-1-oxo-2,3-dihydro-1H-isoindol-4-yl]oxy}acetyl)piperazin-1-yl]ethyl}-3-{3-[(6-fluoronaphthalen-1-yl)oxy]propyl}-7-(1,3,5-trimethyl-1H-pyrazol-4-yl)-1H-indole-2-carboxylic acid] are < 0.1 µM, ≤ 0.1 µM and > 10 µM.
For `Cc1nn2c(c1-c1c(F)ccc3c(CCCOc4cccc5cc(F)ccc45)c(C(=O)O)n(CCN4CCN(C(=O)COc5cccc6c5CN(C5CCC(=O)NC5=O)C6=O)CC4)c13)CCC2` (stereo not drawn) [Compound 225, 1-(2-(4-(2-((2-(2,6-dioxopiperidin-3-yl)-1-oxoisoindolin-4-yl)oxy)acetyl)piperazin-1-yl)ethyl)-6-fluoro-3-(3-((6-fluoronaphthalen-1-yl)oxy)propyl)-7-(2-methyl-5,6-dihydro-4H-pyrrolo[1,2-b]pyrazol-3-yl)-1H-indole-2-carboxylic acid], the EC50 in assay [1] is < 0.1 µM. Further, the IC50 is ≤ 0.316 µM in the assay on MV-4-11 cells and > 10 µM in the assay on ARH-77 cells.
The corresponding values for `Cc1nc2c(NCC(=O)N3CCN(CCn4c(C(=O)O)c(CCCOc5cccc6cc(F)ccc56)c5ccc(Cl)c(-c6c(C)nn(C)c6C)c54)CC3)cccc2cc1C1CCC(=O)NC1=O` (stereo not drawn) [Compound 284, 6-Chloro-1-{2-[4-(2-{[3-(2,6-dioxopiperidin-3-yl)-2-methylquinolin-8-yl]amino}acetyl)piperazin-1-yl]ethyl}-3-{3-[(6-fluoronaphthalen-1-yl)oxy]propyl}-7-(1,3,5-trimethyl-1H-pyrazol-4-yl)-1H-indole-2-carboxylic acid] are < 0.1 µM, ≤ 0.1 µM and > 3.16 µM.
The corresponding values for `Cc1nn(C)c(C)c1-c1c(Cl)ccc2c(CCCOc3cccc4cc(F)ccc34)c(C(=O)O)n(CCN3CCC4CN(C(=O)CNc5cccc6c5C(=O)N(C5CCC(=O)NC5=O)C6=O)CC43)c12` (stereo not drawn) [Compound 300, 6-Chloro-1-(2-(5-((2-(2,6-dioxopiperidin-3-yl)-1,3-dioxoisoindolin-4-yl)glycyl)hexahydropyrrolo[3,4-b]pyrrol-1(2H)-yl)ethyl)-3-(3-((6-fluoronaphthalen-1-yl)oxy)propyl)-7-(1,3,5-trimethyl-1H-pyrazol-4-yl)-1H-indole-2-carboxylic acid] are < 0.01 µM, ≤ 0.1 µM and > 3.16 µM.
The corresponding values for `COc1ccc(C(=O)NC2CCC(=O)NC2=O)c2nc(C)n(CC(=O)N3CCN(CCn4c(C(=O)O)c(CCCOc5cccc6cc(F)ccc56)c5ccc(Cl)c(-c6c(C)nn(C)c6C)c54)CC3)c12` (stereo not drawn) [Compound 272, 6-Chloro-1-(2-(4-(2-(4-((2,6-dioxopiperidin-3-yl)carbamoyl)-7-methoxy-2-methyl-1H-benzo[d]imidazol-1-yl)acetyl)piperazin-1-yl)ethyl)-3-(3-((6-fluoronaphthalen-1-yl)oxy)propyl)-7-(1,3,5-trimethyl-1H-pyrazol-4-yl)-1H-indole-2-carboxylic acid] are < 0.1 µM, ≤ 0.1 µM and > 10 µM.
Regarding `Cc1nn(C)c(C)c1-c1c(Cl)ccc2c(CCCOc3cccc4cc(F)ccc34)c(C(=O)O)n(CCCCNC(=O)CNc3cccc4c3C(=O)N(C3CCC(=O)NC3=O)C4=O)c12` (stereo not drawn) [Compound 325, 6-Chloro-1-[4-(2-{[2-(2,6-dioxopiperidin-3-yl)-1,3-dioxo-2,3-dihydro-1H-isoindol-4-yl]amino}acetamido)butyl]-3-{3-[(6-fluoronaphthalen-1-yl)oxy]propyl}-7-(1,3,5-trimethyl-1H-pyrazol-4-yl)-1H-indole-2-carboxylic acid], the EC50 in assay [1] was < 0.01 µM. For the same compound, the IC50 in the assay with MV-4-11 cells is ≤ 0.1 µM; with ARH-77 cells, > 10 µM.
The corresponding values for `Cc1nn(C)c(C)c1-c1c(Cl)ccc2c(CCCOc3cccc4ccccc34)c(C(=O)O)n(CCN3CCN(C(=O)COc4cccc5c4CN(C4CCC(=O)NC4=O)C5=O)C4CC43)c12` (stereo not drawn) [Compound 222, 6-chloro-1-{2-[5-(2-{[2-(2,6-dioxopiperidin-3-yl)-1-oxo-2,3-dihydro-1H-isoindol-4-yl]oxy}acetyl)-2,5-diazabicyclo[4.1.0]heptan-2-yl]ethyl}-3-[3-(naphthalen-1-yloxy)propyl]-7-(1,3,5-trimethyl-1H-pyrazol-4-yl)-1H-indole-2-carboxylic acid] are < 0.1 µM, ≤ 0.316 µM and > 10 µM.
The corresponding values for `Cc1nn(C)c(C)c1-c1c(Cl)ccc2c(CCCOc3cccc4cc(F)ccc34)c(C(=O)O)n(CCN3CCN(C(=O)[C@H](C)Oc4cccc5c4C(=O)N(C4CCC(=O)NC4=O)C5=O)CC3)c12` (mixture of isomers) [Compound 318, 6-Chloro-1-(2-(4-((2S)-2-((2-(2,6-dioxopiperidin-3-yl)-1,3-dioxoisoindolin-4-yl)oxy)propanoyl)piperazin-1-yl)ethyl)-3-(3-((6-fluoronaphthalen-1-yl)oxy)propyl)-7-(1,3,5-trimethyl-1H-pyrazol-4-yl)-1H-indole-2-carboxylic acid] are < 0.1 µM, ≤ 0.0316 µM and > 10 µM.
